From patent US12297235B2, “Synthetic peptide compounds and methods of use” (REALTA HOLDINGS, LLC, priority 2015, dated 2025)
Square brackets hold non-standard residues; d marks the D form. Peptide text beside a SMILES is read from it. PEG24 = NCCOCCOCCOCCOCCOCCOCCOCCOCCOCCOCCOCCOCCOCCOCCOCCOCCOCCOCCOCCOCCOCCOCCOCCOCCC(=O)O; Sar = CNCC(=O)O

Experiment: Solubility in water
Assay type: physicochemical
Conditions: Table 7, PEGylated and Sar/Ala substitution peptides

Compound | Solubility in water
CC[C@H](C)[C@H](N)C(=O)N[C@@H](C)C(=O)N[C@@H](CC(C)C)C(=O)N[C@H](C(=O)N[C@@H](CC(C)C)C(=O)N[C@@H](C)C(=O)N1CCC[C@H]1C(=O)N[C@H](C(=O)N[C@@H](CS)C(=O)N[C@@H](CS)C(=O)N[C@@H](CCC(N)=O)C(=O)N[C@@H](C)C(=O)N[C@@H](CCCNC(=N)N)C(=O)N[C@@H](C)C(=O)N[C@@H](C)C(=O)NCCOCCOCCOCCOCCOCCOCCOCCOCCOCCOCCOCCOCCOCCOCCOCCOCCOCCOCCOCCOCCOCCOCCOCCOCCC(=O)O)[C@@H](C)CC)[C@@H](C)CC [E6AE12A-dPEG24] (H-IALILAPICCQARAA[PEG24]-OH) | Yes
CC[C@H](C)[C@H](N)C(=O)N[C@@H](C)C(=O)N[C@@H](CC(C)C)C(=O)N[C@H](C(=O)N[C@@H](CC(C)C)C(=O)N[C@@H](CCC(=O)O)C(=O)N1CCC[C@H]1C(=O)N[C@H](C(=O)N[C@@H](CS)C(=O)N[C@@H](CS)C(=O)N[C@@H](CCC(N)=O)C(=O)N[C@@H](CCC(=O)O)C(=O)N[C@@H](CCCNC(=N)N)C(=O)N(C)CC(=O)N[C@@H](C)C(=O)NCCOCCOCCOCCOCCOCCOCCOCCOCCOCCOCCOCCOCCOCCOCCOCCOCCOCCOCCOCCOCCOCCOCCOCCOCCC(=O)O)[C@@H](C)CC)[C@@H](C)CC [PA-A14Sar-dPEG24] | Yes
CC[C@H](C)[C@H](N)C(=O)N[C@@H](C)C(=O)N[C@@H](CC(C)C)C(=O)N[C@H](C(=O)N[C@@H](CC(C)C)C(=O)N[C@@H](CCC(=O)O)C(=O)N1CCC[C@H]1C(=O)N[C@H](C(=O)N(C)CC(=O)N[C@@H](C)C(=O)N[C@@H](CCC(N)=O)C(=O)N[C@@H](CCC(=O)O)C(=O)N[C@@H](CCCNC(=N)N)C(=O)N[C@@H](C)C(=O)N[C@@H](C)C(=O)O)[C@@H](C)CC)[C@@H](C)CC [PA-C9SarC10A] (H-IALILEPI[Sar]AQERAA-OH) | Yes
CC[C@H](C)[C@H](N)C(=O)N[C@@H](C)C(=O)N[C@@H](CC(C)C)C(=O)N[C@H](C(=O)N[C@@H](CC(C)C)C(=O)N[C@@H](CCC(=O)O)C(=O)N1CCC[C@H]1C(=O)N[C@H](C(=O)N(C)CC(=O)N[C@@H](CCC(N)=O)C(=O)N[C@@H](CCC(=O)O)C(=O)N[C@@H](CCCNC(=N)N)C(=O)N[C@@H](C)C(=O)N[C@@H](C)C(=O)O)[C@@H](C)CC)[C@@H](C)CC [PA-C9SarD10] (H-IALILEPI[Sar]QERAA-OH) | Yes
CC[C@H](C)[C@H](N)C(=O)N[C@@H](C)C(=O)N[C@@H](CC(C)C)C(=O)N[C@H](C(=O)N[C@@H](CC(C)C)C(=O)N(C)CC(=O)N1CCC[C@H]1C(=O)N[C@H](C(=O)N[C@@H](CS)C(=O)N[C@@H](CS)C(=O)N[C@@H](CCC(N)=O)C(=O)N[C@@H](CCC(=O)O)C(=O)N[C@@H](CCCNC(=N)N)C(=O)N[C@@H](C)C(=O)N[C@@H](C)C(=O)NCCOCCOCCOCCOCCOCCOCCOCCOCCOCCOCCOCCOCCOCCOCCOCCOCCOCCOCCOCCOCCOCCOCCOCCOCCC(=O)O)[C@@H](C)CC)[C@@H](C)CC [PA-E6Sar-dPEG24] | Yes
CC[C@H](C)[C@H](N)C(=O)N[C@@H](C)C(=O)N[C@@H](CC(C)C)C(=O)N[C@H](C(=O)N[C@@H](CC(C)C)C(=O)N[C@@H](CCC(=O)O)C(=O)N(C)CC(=O)N[C@H](C(=O)N(C)CC(=O)N[C@@H](CS)C(=O)N[C@@H](CCC(N)=O)C(=O)N[C@@H](CCC(=O)O)C(=O)N[C@@H](CCCNC(=N)N)C(=O)N[C@@H](C)C(=O)N[C@@H](C)C(=O)O)[C@@H](C)CC)[C@@H](C)CC [PA-P7SarC9Sar, IALILE(Sar)I(Sar)CQERAA] (H-IALILE[Sar]I[Sar]CQERAA-OH) | Yes
CC[C@H](C)[C@H](N)C(=O)N[C@@H](C)C(=O)N[C@@H](CC(C)C)C(=O)N[C@H](C(=O)N[C@@H](CC(C)C)C(=O)N[C@@H](CCC(=O)O)C(=O)N1CCC[C@H]1C(=O)N[C@H](C(=O)N[C@@H](CS)C(=O)N[C@@H](CS)C(=O)N(C)CC(=O)N[C@@H](CCC(=O)O)C(=O)N[C@@H](CCCNC(=N)N)C(=O)N[C@@H](C)C(=O)N[C@@H](C)C(=O)NCCOCCOCCOCCOCCOCCOCCOCCOCCOCCOCCOCCOCCOCCOCCOCCOCCOCCOCCOCCOCCOCCOCCOCCOCCC(=O)O)[C@@H](C)CC)[C@@H](C)CC [PA-Q11Sar-dPEG24] | Yes
CC[C@H](C)[C@H](N)C(=O)N[C@@H](C)C(=O)N[C@@H](CC(C)C)C(=O)N[C@H](C(=O)N[C@@H](CC(C)C)C(=O)N[C@@H](CCC(=O)O)C(=O)N1CCC[C@H]1C(=O)N[C@H](C(=O)N[C@@H](CS)C(=O)N[C@@H](CS)C(=O)N[C@@H](CCC(N)=O)C(=O)N[C@@H](CCC(=O)O)C(=O)N(C)CC(=O)N[C@@H](C)C(=O)N[C@@H](C)C(=O)NCCOCCOCCOCCOCCOCCOCCOCCOCCOCCOCCOCCOCCOCCOCCOCCOCCOCCOCCOCCOCCOCCOCCOCCOCCC(=O)O)[C@@H](C)CC)[C@@H](C)CC [PA-R13Sar-dPEG24] | Yes
CC[C@H](C)[C@H](N)C(=O)N[C@@H](C)C(=O)N[C@@H](CC(C)C)C(=O)N[C@H](C(=O)N[C@@H](CC(C)C)C(=O)N[C@@H](CCC(=O)O)C(=O)N1CCC[C@H]1C(=O)N[C@H](C(=O)N(C)CC(=O)N[C@@H](CS)C(=O)N[C@@H](CCC(N)=O)C(=O)N[C@@H](CCC(=O)O)C(=O)N[C@@H](CCCNC(=N)N)C(=O)N(C)CC(=O)N[C@@H](C)C(=O)O)[C@@H](C)CC)[C@@H](C)CC [Peptide A14SarC9Sar] (H-IALILEPI[Sar]CQER[Sar]A-OH) | No
CC[C@H](C)[C@H](N)C(=O)N[C@@H](C)C(=O)N[C@@H](CC(C)C)C(=O)N[C@H](C(=O)N[C@@H](CC(C)C)C(=O)N[C@@H](CCC(=O)O)C(=O)N(C)CC(=O)N[C@H](C(=O)N[C@@H](CS)C(=O)N[C@@H](CS)C(=O)N[C@@H](CCC(N)=O)C(=O)N[C@@H](CCC(=O)O)C(=O)N[C@@H](CCCNC(=N)N)C(=O)N(C)CC(=O)N[C@@H](C)C(=O)O)[C@@H](C)CC)[C@@H](C)CC [Peptide A14SarP7Sar, IALILE(Sar)ICCQER(Sar)A] (H-IALILE[Sar]ICCQER[Sar]A-OH; N-terminus and C-terminus assumed) | Yes
CC[C@H](C)[C@H](N)C(=O)N[C@@H](C)C(=O)N[C@@H](CC(C)C)C(=O)N[C@H](C(=O)N[C@@H](CC(C)C)C(=O)N[C@@H](C)C(=O)N1CCC[C@H]1C(=O)N[C@H](C(=O)N(C)CC(=O)N[C@@H](CS)C(=O)N[C@@H](CCC(N)=O)C(=O)N[C@@H](C)C(=O)N[C@@H](CCCNC(=N)N)C(=O)N[C@@H](C)C(=O)N[C@@H](C)C(=O)O)[C@@H](C)CC)[C@@H](C)CC [Peptide E6AE12AC9Sar] (H-IALILAPI[Sar]CQARAA-OH) | No
CC[C@H](C)[C@H](N)C(=O)N[C@@H](C)C(=O)N[C@@H](CC(C)C)C(=O)N[C@H](C(=O)N[C@@H](CC(C)C)C(=O)N[C@@H](C)C(=O)N(C)CC(=O)N[C@H](C(=O)N[C@@H](CS)C(=O)N[C@@H](CS)C(=O)N[C@@H](CCC(N)=O)C(=O)N[C@@H](C)C(=O)N[C@@H](CCCNC(=N)N)C(=O)N[C@@H](C)C(=O)N[C@@H](C)C(=O)O)[C@@H](C)CC)[C@@H](C)CC [Peptide E6AE12AP7Sar] (H-IALILA[Sar]ICCQARAA-OH; N-terminus and C-terminus assumed) | Yes
